Measurements as given in patent US10681909B2, “Herbicidal triazoles” (FMC Corporation, priority 2014, dated 2020).

How the values were obtained:
Settings in all cases: scale 0 to 100
speedwell = test: Test D postemergence; assay type: in vivo, Veronica persica
From the text: (§1) Seeds of plant species selected from bluegrass (annual bluegrass, Poa annua), blackgrass (Alopecurus myosuroides), canarygrass (Phalaris minor), chickweed (common chickweed, Stellaria media), galium (catchweed bedstraw, Galium aparine), bromegrass, down (downy bromegrass, Bromus tectorum), Russian thistle (Salsola kali), field poppy (Papaver rhoeas), field violet (Viola arvensis), foxtail, green (green foxtail, Setaria viridis), deadnettle (henbit deadnettle, Lamium amplexicaule), ryegrass, Ital. (Italian ryegrass, Lolium multiflorum), kochia (Kochia scoparia), lambsquarters (Chenopodium album), oilseed rape (Brassica napus), pigweed (Amaranthus retroflexus), chamomile (scentless chamomile, Matricaria inodora), speedwell (bird's-eye speedwell, Veronica persica), barley, spring (spring barley, Hordeum vulgare), wheat, spring (spring wheat, Triticum aestivum), buckwheat, wild (wild buckwheat, Polygonum convolvulus), wild mustard (Sinapis arvensis), oat, wild (wild oat, Avena fatua), radish, wild (wild radish, Raphanus raphanistrum), […]), barley, winter (winter barley, Hordeum vulgare), and wheat, winter (winter wheat, Triticum aestivum) were planted into a silt loam soil and treated preemergence with test chemicals formulated in a non-phytotoxic solvent mixture which included a surfactant. At the same time, these species were planted in pots containing Sunshine Redi-Earth® planting medium comprising spaghnum peat moss, vermiculite, starter nutrients and dolomitic limestone and treated with postemergence applications of the test chemicals formulated in the same manner. Plants ranged in height from 2 to 18 cm (1- to 4-leaf stage). Treated plants and controls were maintained in a controlled growth environment for 14 to 21 d after which time all species were compared to controls and visually evaluated. […] A dash (-) response means no test result.

field violet = test: Test D postemergence; assay type: in vivo, Viola arvensis
From the text: as §1

oilseed rape = test: Test D postemergence; assay type: in vivo, Brassica napus
From the text: as §1

radish, wild = test: Test D postemergence; assay type: in vivo, Raphanus raphanistrum
From the text: as §1

oat, wild [1] = test: Test D preemergence; assay type: in vivo, Avena fatua
From the text: as §1

deadnettle = test: Test D preemergence; assay type: in vivo, Lamium amplexicaule
From the text: as §1

lambsquarters [2] = test: Test D preemergence; assay type: in vivo, Chenopodium album
From the text: as §1

oat, wild [3] = test: Test D postemergence; assay type: in vivo, Avena fatua
From the text: as §1

lambsquarters [4] = test: Test D postemergence; assay type: in vivo, Chenopodium album
From the text: as §1

wheat, winter = test: Test D postemergence; assay type: in vivo, Triticum aestivum
From the text: as §1

wheat, spring = test: Test D postemergence; assay type: in vivo, Triticum aestivum
From the text: as §1

wild mustard = test: Test D postemergence; assay type: in vivo, Sinapis arvensis
From the text: as §1

foxtail, green = test: Test D preemergence; assay type: in vivo, Setaria viridis
From the text: as §1

chickweed = test: Test D preemergence; assay type: in vivo, Stellaria media
From the text: as §1

buckwheat, wild = test: Test D postemergence; assay type: in vivo, Polygonum convolvulus
From the text: as §1

CCOc1nc(-c2ccc(F)cc2)nn1Cc1ccnc(C(F)(F)F)c1 [Compound 8, 4-[[5-ethoxy-3-(4-fluorophenyl)-1H-1,2,4-triazol-1-yl]methyl]-2-(trifluoromethyl)pyridine]
Plant response rating: Speedwell (speedwell; 31 g ai/ha): 100 | Plant response rating: Speedwell (speedwell; 62 g ai/ha): 100 | Plant response rating: Speedwell (speedwell; 125 g ai/ha): 100 | Plant response rating: Speedwell (speedwell; 250 g ai/ha): 100 | Plant response rating: Field Violet (field violet; 31 g ai/ha): 70 | Plant response rating: Field Violet (field violet; 62 g ai/ha): 75 | Plant response rating: Field Violet (field violet; 125 g ai/ha): 90 | Plant response rating: Field Violet (field violet; 250 g ai/ha): 100 | Plant response rating: Oilseed Rape (oilseed rape; 31 g ai/ha): 70 | Plant response rating: Oilseed Rape (oilseed rape; 62 g ai/ha): 75 | Plant response rating: Oilseed Rape (oilseed rape; 125 g ai/ha): 100 | Plant response rating: Oilseed Rape (oilseed rape; 250 g ai/ha): 100 | Plant response rating: Radish, Wild (radish, wild; 31 g ai/ha): 80 | Plant response rating: Radish, Wild (radish, wild; 62 g ai/ha): 100 | Plant response rating: Radish, Wild (radish, wild; 125 g ai/ha): 100 | Plant response rating: Radish, Wild (radish, wild; 250 g ai/ha): 100 | Plant response rating: Oat, Wild (oat, wild [1]; 62 g ai/ha): 40 | Plant response rating: Oat, Wild (oat, wild [1]; 125 g ai/ha): 70 | Plant response rating: Oat, Wild (oat, wild [1]; 250 g ai/ha): 80 | Plant response rating: Deadnettle (deadnettle; 31 g ai/ha): 100 | Plant response rating: Deadnettle (deadnettle; 62 g ai/ha): 100 | Plant response rating: Deadnettle (deadnettle; 125 g ai/ha): 100 | Plant response rating: Deadnettle (deadnettle; 250 g ai/ha): 100 | Plant response rating: Lambsquarters (lambsquarters [2]; 62 g ai/ha): 100 | Plant response rating: Lambsquarters (lambsquarters [2]; 125 g ai/ha): 100 | Plant response rating: Lambsquarters (lambsquarters [2]; 250 g ai/ha): 100 | Plant response rating: Oat, Wild (oat, wild [3]; 31 g ai/ha): 35 | Plant response rating: Oat, Wild (oat, wild [3]; 62 g ai/ha): 45 | Plant response rating: Oat, Wild (oat, wild [3]; 125 g ai/ha): 45 | Plant response rating: Oat, Wild (oat, wild [3]; 250 g ai/ha): 55 | Plant response rating: Lambsquarters (lambsquarters [4]; 31 g ai/ha): 95 | Plant response rating: Lambsquarters (lambsquarters [4]; 62 g ai/ha): 95 | Plant response rating: Lambsquarters (lambsquarters [4]; 125 g ai/ha): 95 | Plant response rating: Lambsquarters (lambsquarters [4]; 250 g ai/ha): 90 | Plant response rating: Wheat, Winter (wheat, winter; 31 g ai/ha): 25 | Plant response rating: Wheat, Winter (wheat, winter; 62 g ai/ha): 35 | Plant response rating: Wheat, Winter (wheat, winter; 125 g ai/ha): 35 | Plant response rating: Wheat, Winter (wheat, winter; 250 g ai/ha): 35 | Plant response rating: Wheat, Spring (wheat, spring; 31 g ai/ha): 25 | Plant response rating: Wheat, Spring (wheat, spring; 62 g ai/ha): 25 | Plant response rating: Wheat, Spring (wheat, spring; 125 g ai/ha): 35 | Plant response rating: Wheat, Spring (wheat, spring; 250 g ai/ha): 35 | Plant response rating: Mustard, Wild (wild mustard; 31 g ai/ha): 100 | Plant response rating: Mustard, Wild (wild mustard; 62 g ai/ha): 100 | Plant response rating: Mustard, Wild (wild mustard; 125 g ai/ha): 100 | Plant response rating: Mustard, Wild (wild mustard; 250 g ai/ha): 100 | Plant response rating: Foxtail, Green (foxtail, green; 62 g ai/ha): 100 | Plant response rating: Foxtail, Green (foxtail, green; 125 g ai/ha): 100 | Plant response rating: Foxtail, Green (foxtail, green; 250 g ai/ha): 100 | Plant response rating: Chickweed (chickweed; 31 g ai/ha): 100 | Plant response rating: Chickweed (chickweed; 62 g ai/ha): 100 | Plant response rating: Chickweed (chickweed; 125 g ai/ha): 100 | Plant response rating: Chickweed (chickweed; 250 g ai/ha): 100 | Plant response rating: Buckwheat, Wild (buckwheat, wild; 31 g ai/ha): 70 | Plant response rating: Buckwheat, Wild (buckwheat, wild; 62 g ai/ha): 70 | Plant response rating: Buckwheat, Wild (buckwheat, wild; 125 g ai/ha): 95 | Plant response rating: Buckwheat, Wild (buckwheat, wild; 250 g ai/ha): 95

CCc1nc(-c2ccc(C(F)(F)F)cc2)nn1Cc1ccnc(C(F)(F)F)c1 [Compound 1, 4-[[5-ethyl-3-[4-(trifluoromethyl)phenyl]-1H-1,2,4-triazol-1-yl]methyl]-2-(trifluoromethyl)pyridine]
Plant response rating: Speedwell (speedwell; 31 g ai/ha): 100 | Plant response rating: Speedwell (speedwell; 62 g ai/ha): 100 | Plant response rating: Speedwell (speedwell; 125 g ai/ha): 100 | Plant response rating: Speedwell (speedwell; 250 g ai/ha): 100 | Plant response rating: Field Violet (field violet; 31 g ai/ha): 100 | Plant response rating: Field Violet (field violet; 62 g ai/ha): 100 | Plant response rating: Field Violet (field violet; 125 g ai/ha): 100 | Plant response rating: Field Violet (field violet; 250 g ai/ha): 100 | Plant response rating: Oilseed Rape (oilseed rape; 31 g ai/ha): 70 | Plant response rating: Oilseed Rape (oilseed rape; 62 g ai/ha): 80 | Plant response rating: Oilseed Rape (oilseed rape; 125 g ai/ha): 100 | Plant response rating: Oilseed Rape (oilseed rape; 250 g ai/ha): 100 | Plant response rating: Radish, Wild (radish, wild; 31 g ai/ha): 75 | Plant response rating: Radish, Wild (radish, wild; 62 g ai/ha): 100 | Plant response rating: Radish, Wild (radish, wild; 125 g ai/ha): 95 | Plant response rating: Radish, Wild (radish, wild; 250 g ai/ha): 95 | Plant response rating: Oat, Wild (oat, wild [1]; 62 g ai/ha): 0 | Plant response rating: Oat, Wild (oat, wild [1]; 125 g ai/ha): 15 | Plant response rating: Oat, Wild (oat, wild [1]; 250 g ai/ha): 45 | Plant response rating: Deadnettle (deadnettle; 31 g ai/ha): 100 | Plant response rating: Deadnettle (deadnettle; 62 g ai/ha): 100 | Plant response rating: Deadnettle (deadnettle; 125 g ai/ha): 100 | Plant response rating: Deadnettle (deadnettle; 250 g ai/ha): 100 | Plant response rating: Lambsquarters (lambsquarters [2]; 62 g ai/ha): 100 | Plant response rating: Lambsquarters (lambsquarters [2]; 125 g ai/ha): 100 | Plant response rating: Lambsquarters (lambsquarters [2]; 250 g ai/ha): 100 | Plant response rating: Oat, Wild (oat, wild [3]; 31 g ai/ha): 25 | Plant response rating: Oat, Wild (oat, wild [3]; 62 g ai/ha): 30 | Plant response rating: Oat, Wild (oat, wild [3]; 125 g ai/ha): 35 | Plant response rating: Oat, Wild (oat, wild [3]; 250 g ai/ha): 45 | Plant response rating: Lambsquarters (lambsquarters [4]; 31 g ai/ha): 75 | Plant response rating: Lambsquarters (lambsquarters [4]; 62 g ai/ha): 80 | Plant response rating: Lambsquarters (lambsquarters [4]; 125 g ai/ha): 85 | Plant response rating: Lambsquarters (lambsquarters [4]; 250 g ai/ha): 90 | Plant response rating: Wheat, Winter (wheat, winter; 31 g ai/ha): 15 | Plant response rating: Wheat, Winter (wheat, winter; 62 g ai/ha): 15 | Plant response rating: Wheat, Winter (wheat, winter; 125 g ai/ha): 25 | Plant response rating: Wheat, Winter (wheat, winter; 250 g ai/ha): 35 | Plant response rating: Wheat, Spring (wheat, spring; 31 g ai/ha): 20 | Plant response rating: Wheat, Spring (wheat, spring; 62 g ai/ha): 25 | Plant response rating: Wheat, Spring (wheat, spring; 125 g ai/ha): 35 | Plant response rating: Wheat, Spring (wheat, spring; 250 g ai/ha): 45 | Plant response rating: Mustard, Wild (wild mustard; 31 g ai/ha): 100 | Plant response rating: Mustard, Wild (wild mustard; 62 g ai/ha): 100 | Plant response rating: Mustard, Wild (wild mustard; 125 g ai/ha): 100 | Plant response rating: Mustard, Wild (wild mustard; 250 g ai/ha): 100 | Plant response rating: Foxtail, Green (foxtail, green; 62 g ai/ha): 100 | Plant response rating: Foxtail, Green (foxtail, green; 125 g ai/ha): 100 | Plant response rating: Foxtail, Green (foxtail, green; 250 g ai/ha): 100 | Plant response rating: Chickweed (chickweed; 31 g ai/ha): 90 | Plant response rating: Chickweed (chickweed; 62 g ai/ha): 100 | Plant response rating: Chickweed (chickweed; 125 g ai/ha): 100 | Plant response rating: Chickweed (chickweed; 250 g ai/ha): 100 | Plant response rating: Buckwheat, Wild (buckwheat, wild; 31 g ai/ha): 60 | Plant response rating: Buckwheat, Wild (buckwheat, wild; 62 g ai/ha): 80 | Plant response rating: Buckwheat, Wild (buckwheat, wild; 125 g ai/ha): 100 | Plant response rating: Buckwheat, Wild (buckwheat, wild; 250 g ai/ha): 100
